These results are taken from ChEMBL document CHEMBL3785063 (Eur J Clin Pharmacol, 1981).

Series [1] in a line: Drug concentration in arrhythmia patient (7 patients) serum at 400 mg, iv after 4 days 400 mg, po dose administered followed continuous oral therapy with 200 mg, tid measured after 1 week by HPLC analysis. Particulars: human.
A short description of series [2]: Drug concentration in arrhythmia patient (7 patients) serum at 400 mg, iv after 4 days 400 mg, po dose administered followed continuous oral therapy with 200 mg, tid measured after 24 hrs by HPLC analysis. Particulars: human.
Series [3] can be described thus: Drug excretion in arrhythmia patient (7 patients) assessed as unchanged compound level in urine at 400 mg, iv after 4 days 400 mg, po dose administered followed continuous oral therapy with 200 mg, tid measured 2 hrs after iv drug challenge by HPLC analysis. The conditions noted are these: human.
A short description of series [4]: Tmax in arrhythmia patient (7 patients) at 400 mg, iv after 4 days 400 mg, po dose administered followed continuous oral therapy with 200 mg, tid by HPLC analysis. The conditions noted are these: human, in vivo.
The nature of series [5]: Drug concentration in arrhythmia patient (7 patients) serum at 400 mg, iv after 4 days 400 mg, po dose administered followed continuous oral therapy with 200 mg, tid measured after 1 month by HPLC analysis. The conditions noted are these: human.
Series [6] is described as follows: Drug uptake in arrhythmia patient (7 patients) serum at 400 mg, iv after 4 days 400 mg, po dose administered followed continuous oral therapy with 200 mg, tid measured 2 hrs after iv drug challenge by HPLC analysis. The conditions noted are these: human.
Series [7] is described as follows: Drug concentration in arrhythmia patient (7 patients) serum at 400 mg, iv after 4 days 400 mg, po dose administered followed continuous oral therapy with 200 mg, tid measured after 48 hrs by HPLC analysis. Particulars: human.

The Tmax is the time at which the peak concentration occurs. `CCCCc1oc2ccccc2c1C(=O)c1cc(I)c(OCCN(CC)CC)c(I)c1` [AMIODARONE]: in series [1], the concentration at 1 week came to 1180 ng/mL. The same compound registered a concentration at 24 h in series [2] of 610 ng/mL. Besides, the concentration at 2 h in series [3] was 100 ng/mL; in series [6], 2000 ng/mL. For the same compound, the Tmax at 96 h in series [4] is 7.3 h. In addition, the concentration at 96 h in series [5] is 1560 ng/mL. The same compound came in with a concentration at 48 h in series [7] of 760 ng/mL.
